Assay results reported in PubChem BioAssay (NCI).
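A five-concentration, 48-hour dose response in 96-well plates underlies each endpoint, interpolated linearly between surrounding concentrations. TGI denotes the concentration required for complete inhibition of growth.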

The compounds below were run on MOLT-4 leukemia (assay: NCI tumour cell line growth inhibition, 48 h).
`O=C(COc1ccc(Br)cc1Br)N1N=C(c2ccc([N+](=O)[O-])o2)CC1(O)c1ccccc1` (centres undefined) gave a TGI of 8.98 µM.
For `CNS(=O)(=O)NNS(=O)(=O)c1ccc2ccccc2c1`, the TGI was over 100 µM.
For `CCOC(=O)CN1C(=O)c2cccc3cc([N+](=O)[O-])cc(c23)C1=O`, the TGI was 2.45 µM.
`CC(N)Cc1ccc(C(=O)Cl)cc1` (centres undefined) was tested, and the TGI was over 100 µM.

What follows are compounds tested on NCI-H226 lung (assay: NCI tumour cell line growth inhibition, 48 h).
For `CCN(CC)CCC(=O)Nc1ccc2c(c1)C(=O)c1ccc(NC(=O)CCN(CC)CC)cc1C2=O`, the TGI was 7.8 µM.
`COc1ccc(C(=O)C(C(=O)CCC(=O)Nc2ccc(C)c(C)c2)c2ccc(OC)cc2)cc1` (centres undefined) was tested, and the TGI was over 100 µM.
For `COc1cc2c(cc1OC)-c1c3cc(O)ccc3nn[n+]1CC2`, the TGI was over 100 µM.
In the case of `CCCCCCCCCCCCCCCCCC(CCCCCCCCCCCCCCCCC)OP(=O)(O)O`, the TGI is reported as over 100 µM.
`O=C(COc1ccc(Br)cc1Br)N1N=C(c2ccc([N+](=O)[O-])o2)CC1(O)c1ccccc1` (centres undefined) was tested, and the TGI was 36.4 µM.
`CNS(=O)(=O)NNS(=O)(=O)c1ccc2ccccc2c1` showed a TGI of over 100 µM.
In the case of `CCOC(=O)CN1C(=O)c2cccc3cc([N+](=O)[O-])cc(c23)C1=O`, the TGI is reported as 23 µM.

The compounds below were run on NCI-H23 lung (assay: NCI tumour cell line growth inhibition, 48 h).
For `CCN(CC)CCC(=O)Nc1ccc2c(c1)C(=O)c1ccc(NC(=O)CCN(CC)CC)cc1C2=O`, the TGI was 23.2 µM.
In the case of `COc1cc2c(cc1OC)-c1c3cc(O)ccc3nn[n+]1CC2`, the TGI is reported as over 100 µM.
`CCCCCCCCCCCCCCCCCC(CCCCCCCCCCCCCCCCC)OP(=O)(O)O` showed a TGI of over 100 µM.
Work on `O=C(COc1ccc(Br)cc1Br)N1N=C(c2ccc([N+](=O)[O-])o2)CC1(O)c1ccccc1` (centres undefined) yielded a TGI of 36 µM.
In the case of `CNS(=O)(=O)NNS(=O)(=O)c1ccc2ccccc2c1`, the TGI is reported as over 100 µM.
`CCOC(=O)CN1C(=O)c2cccc3cc([N+](=O)[O-])cc(c23)C1=O` gave a TGI of 4.52 µM.
`CC(N)Cc1ccc(C(=O)Cl)cc1` (centres undefined) was tested, and the TGI was over 100 µM.

Each compound was assayed on NCI-H460 lung (assay: NCI tumour cell line growth inhibition, 48 h).
In the case of `CCN(CC)CCC(=O)Nc1ccc2c(c1)C(=O)c1ccc(NC(=O)CCN(CC)CC)cc1C2=O`, the TGI is reported as 2.74 µM.
Work on `COc1ccc(C(=O)C(C(=O)CCC(=O)Nc2ccc(C)c(C)c2)c2ccc(OC)cc2)cc1` (centres undefined) yielded a TGI of over 100 µM.
Compound `COc1cc2c(cc1OC)-c1c3cc(O)ccc3nn[n+]1CC2` has a TGI of over 100 µM.
For `CCCCCCCCCCCCCCCCCC(CCCCCCCCCCCCCCCCC)OP(=O)(O)O`, the TGI was over 100 µM.
Work on `O=C(COc1ccc(Br)cc1Br)N1N=C(c2ccc([N+](=O)[O-])o2)CC1(O)c1ccccc1` (centres undefined) yielded a TGI of 20.4 µM.
In the case of `CNS(=O)(=O)NNS(=O)(=O)c1ccc2ccccc2c1`, the TGI is reported as over 100 µM.
For `CCOC(=O)CN1C(=O)c2cccc3cc([N+](=O)[O-])cc(c23)C1=O`, the TGI was 17.3 µM.
`CC(N)Cc1ccc(C(=O)Cl)cc1` (centres undefined) was tested, and the TGI was over 100 µM.

The compounds below were run on NCI-H522 lung (assay: NCI tumour cell line growth inhibition, 48 h).
For `CCN(CC)CCC(=O)Nc1ccc2c(c1)C(=O)c1ccc(NC(=O)CCN(CC)CC)cc1C2=O`, the TGI was 23.5 µM.
`COc1cc2c(cc1OC)-c1c3cc(O)ccc3nn[n+]1CC2` showed a TGI of over 100 µM.
For `CCCCCCCCCCCCCCCCCC(CCCCCCCCCCCCCCCCC)OP(=O)(O)O`, the TGI was over 100 µM.
For `O=C(COc1ccc(Br)cc1Br)N1N=C(c2ccc([N+](=O)[O-])o2)CC1(O)c1ccccc1` (centres undefined), the TGI was 20.7 µM.
Compound `CNS(=O)(=O)NNS(=O)(=O)c1ccc2ccccc2c1` has a TGI of over 100 µM.
`CC(N)Cc1ccc(C(=O)Cl)cc1` (centres undefined) gave a TGI of over 100 µM.

What follows are compounds tested on OVCAR-3 ovarian (assay: NCI tumour cell line growth inhibition, 48 h).
Compound `COc1ccc(C(=O)C(C(=O)CCC(=O)Nc2ccc(C)c(C)c2)c2ccc(OC)cc2)cc1` (centres undefined) has a TGI of over 100 µM.
Work on `COc1cc2c(cc1OC)-c1c3cc(O)ccc3nn[n+]1CC2` yielded a TGI of over 100 µM.
`CCCCCCCCCCCCCCCCCC(CCCCCCCCCCCCCCCCC)OP(=O)(O)O` gave a TGI of over 100 µM.
For `O=C(COc1ccc(Br)cc1Br)N1N=C(c2ccc([N+](=O)[O-])o2)CC1(O)c1ccccc1` (centres undefined), the TGI was 20.2 µM.
`CNS(=O)(=O)NNS(=O)(=O)c1ccc2ccccc2c1` was tested, and the TGI was over 100 µM.
With `CCOC(=O)CN1C(=O)c2cccc3cc([N+](=O)[O-])cc(c23)C1=O` the TGI was 14.9 µM.
With `CC(N)Cc1ccc(C(=O)Cl)cc1` (centres undefined) the TGI was over 100 µM.

Each compound was assayed on OVCAR-4 ovarian (assay: NCI tumour cell line growth inhibition, 48 h).
Compound `CCN(CC)CCC(=O)Nc1ccc2c(c1)C(=O)c1ccc(NC(=O)CCN(CC)CC)cc1C2=O` has a TGI of 18.9 µM.
`COc1ccc(C(=O)C(C(=O)CCC(=O)Nc2ccc(C)c(C)c2)c2ccc(OC)cc2)cc1` (centres undefined) gave a TGI of over 100 µM.
`COc1cc2c(cc1OC)-c1c3cc(O)ccc3nn[n+]1CC2` gave a TGI of over 100 µM.
Work on `CCCCCCCCCCCCCCCCCC(CCCCCCCCCCCCCCCCC)OP(=O)(O)O` yielded a TGI of over 100 µM.
Compound `O=C(COc1ccc(Br)cc1Br)N1N=C(c2ccc([N+](=O)[O-])o2)CC1(O)c1ccccc1` (centres undefined) has a TGI of over 100 µM.
For `CNS(=O)(=O)NNS(=O)(=O)c1ccc2ccccc2c1`, the TGI was over 100 µM.
`CCOC(=O)CN1C(=O)c2cccc3cc([N+](=O)[O-])cc(c23)C1=O` was tested, and the TGI was 3.27 µM.
For `CC(N)Cc1ccc(C(=O)Cl)cc1` (centres undefined), the TGI was over 100 µM.

What follows are compounds tested on OVCAR-5 ovarian (assay: NCI tumour cell line growth inhibition, 48 h).
With `CCN(CC)CCC(=O)Nc1ccc2c(c1)C(=O)c1ccc(NC(=O)CCN(CC)CC)cc1C2=O` the TGI was 25.1 µM.
`COc1ccc(C(=O)C(C(=O)CCC(=O)Nc2ccc(C)c(C)c2)c2ccc(OC)cc2)cc1` (centres undefined) gave a TGI of over 100 µM.
